Experimental data as given in ChEMBL document CHEMBL5370585, “Exploration and Biological Evaluation of 1,3-Diamino-7H-pyrrol[3,2-f]quinazoline Derivatives as Dihydrofolate Reductase Inhibitors” (J Med Chem, 2023).
≈ marks a conversion by molar mass, not a printed value.

Columns and labels:
[1] = Toxicity in BALB/c mouse xenografted with mouse EMT6 cells at 24 mg/kg, ip administered every 3 days for 14 consecutive days; type: organism-based; settings: in vivo, 336 h, time 14 day
[2] = Toxicity in BALB/c mouse xenografted with mouse EMT6 cells assessed as effect on body weight at 20 mg/kg, ip measured on day 1 (reference value: 18.5 +/-0.5g); type: organism-based; settings: in vivo, 24 h, time 1 day
[3] = Toxicity in BALB/c mouse xenografted with mouse EMT6 cells assessed as effect on body weight at 20 mg/kg, ip measured on day 14 (reference value: 21.6 +/-0.6g); type: organism-based; settings: in vivo, 336 h, time 14 day
EMT6 [4] = assay: Antitumor activity against mouse EMT6 cells xenografted in BALB/c mouse model assessed as tumor weight at 20 mg/kg,ip administered every 3 days for 14 consecutive days (reference value: 1.53 +/-0.26g); type: functional; settings: time 14 day
EMT6 [5] = assay: Antitumor activity against mouse EMT6 cells xenografted in BALB/c mouse model assessed as tumor growth inhibition at 20 mg/kg,ip administered every 3 days for 14 consecutive days relative to control; type: functional; set-up: scale not given: the % may be the effect or the level left; settings: time 14 day
Staphylococcus aureus [6] = assay: Antibacterial activity against Staphylococcus aureus ATCC 29213 incubated for 16 to 18 hrs by CLSI based broth dilution method; type: functional; settings: time 16-18 hrs
Staphylococcus aureus [7] = assay: Antibacterial activity against methicillin-resistant Staphylococcus aureus ATCC 43300 incubated for 16 to 18 hrs by CLSI based broth dilution method; type: functional; settings: time 16-18 hrs
[8] = tested on: Staphylococcus epidermidis; assay: Antibacterial activity against Staphylococcus epidermidis ATCC 12228 incubated for 16 to 18 hrs by CLSI based broth dilution method; type: functional; settings: time 16-18 hrs
Acinetobacter baumannii [9] = assay: Antibacterial activity against Acinetobacter baumannii ATCC 19606 incubated for 16 to 18 hrs by CLSI based broth dilution method; type: functional; settings: time 16-18 hrs
Enterococcus faecalis [10] = assay: Antibacterial activity against Enterococcus faecalis ATCC 29212 incubated for 16 to 18 hrs by CLSI based broth dilution method; type: functional; settings: time 16-18 hrs
Escherichia coli [11] = assay: Antibacterial activity against Escherichia coli ATCC 25922 incubated for 16 to 18 hrs by CLSI based broth dilution method; type: functional; settings: time 16-18 hrs
Staphylococcus aureus [12] = assay: Drug resistance against methicillin-resistant Staphylococcus aureus ATCC 43300 assessed as fold increase in MIC measured after 10 passaging for 24 hrs; type: functional
[13] = target: T1, Dihydrofolate reductase (Homo sapiens) (UniProt P00374); assay: Inhibition of human DHFR at 1 uM incubated for 10 mins in presence of NADPH by colorimetry based analysis relative to control
T1 sequence (whole entry): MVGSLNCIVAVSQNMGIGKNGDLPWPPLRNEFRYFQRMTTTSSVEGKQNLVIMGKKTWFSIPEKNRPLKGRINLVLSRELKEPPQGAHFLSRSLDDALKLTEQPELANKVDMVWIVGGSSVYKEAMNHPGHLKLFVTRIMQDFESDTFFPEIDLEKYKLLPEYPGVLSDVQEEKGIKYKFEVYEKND

MCF7 = assay: Cytotoxicity against human MCF7 cells measured after 72 hrs by MTT assay; type: functional, cell-based; settings: MCF7, 72 h
HGC-27 = assay: Cytotoxicity against human HGC-27 cells measured after 72 hrs by MTT assay; type: functional, cell-based; settings: HGC-27, 72 h
HCT-116 = assay: Cytotoxicity against human HCT-116 cells measured after 72 hrs by MTT assay; type: functional, cell-based; settings: HCT-116, 72 h
HepG2 = assay: Cytotoxicity against human HepG2 cells measured after 72 hrs by MTT assay; type: functional, cell-based; settings: HepG2, 72 h
[14] = Toxicity in ICR mouse assessed as median lethal dose administered as single IP dose measured upto 8 days; settings: in vivo, time < 8 day
Staphylococcus aureus [15] = assay: Antibacterial activity against methicillin-sensitive Staphylococcus aureus 15-1 incubated for 16 to 18 hrs by CLSI based broth dilution method; type: functional; settings: time 16-18 hrs
Staphylococcus aureus [16] = assay: Antibacterial activity against methicillin-sensitive Staphylococcus aureus 15-2 incubated for 16 to 18 hrs by CLSI based broth dilution method; type: functional; settings: time 16-18 hrs
Staphylococcus aureus [17] = assay: Antibacterial activity against methicillin-sensitive Staphylococcus aureus ATCC 29213 incubated for 16 to 18 hrs by CLSI based broth dilution method; type: functional; settings: time 16-18 hrs
Staphylococcus aureus [18] = assay: Antibacterial activity against methicillin-sensitive Staphylococcus aureus ATCC 25923 incubated for 16 to 18 hrs by CLSI based broth dilution method; type: functional; settings: time 16-18 hrs
Staphylococcus aureus [19] = assay: Antibacterial activity against methicillin-resistant Staphylococcus aureus ATCC 33591 incubated for 16 to 18 hrs by CLSI based broth dilution method; type: functional; settings: time 16-18 hrs
Staphylococcus aureus [20] = assay: Antibacterial activity against vancomycin intermediate Staphylococcus aureus ATCC 700788 incubated for 16 to 18 hrs by CLSI based broth dilution method; type: functional; settings: time 16-18 hrs
Staphylococcus aureus [21] = assay: Antibacterial activity against vancomycin intermediate Staphylococcus aureus ATCC 700699 incubated for 16 to 18 hrs by CLSI based broth dilution method; type: functional; settings: time 16-18 hrs
Enterococcus faecalis [22] = assay: Antibacterial activity against Enterococcus faecalis EFA19-1 incubated for 16 to 18 hrs by CLSI based broth dilution method; type: functional; settings: time 16-18 hrs
Enterococcus faecalis [23] = assay: Antibacterial activity against Enterococcus faecalis EFA19-2 incubated for 16 to 18 hrs by CLSI based broth dilution method; type: functional; settings: time 16-18 hrs
Enterococcus = assay: Antibacterial activity against Vancomycin-resistant Enterococcus ATCC 51575 incubated for 16 to 18 hrs by CLSI based broth dilution method; type: functional; settings: time 16-18 hrs
Escherichia coli [24] = assay: Antibacterial activity against Escherichia coli ATCC BAA-2340 incubated for 16 to 18 hrs by CLSI based broth dilution method; type: functional; settings: time 16-18 hrs
Escherichia coli [25] = assay: Antibacterial activity against Escherichia coli ECO 15-1 incubated for 16 to 18 hrs by CLSI based broth dilution method; type: functional; settings: time 16-18 hrs
Klebsiella pneumoniae [26] = assay: Antibacterial activity against Klebsiella pneumoniae 15-1 assessed as reduction in microbial growth incubated for 16 to 18 hrs by CLSI based broth dilution method; type: functional; settings: time 16-18 hrs
Klebsiella pneumoniae [27] = assay: Antibacterial activity against Klebsiella pneumoniae ATCC 700603 assessed as reduction in microbial growth incubated for 16 to 18 hrs by CLSI based broth dilution method; type: functional; settings: time 16-18 hrs
Acinetobacter baumannii [28] = assay: Antibacterial activity against Acinetobacter baumannii ATCC 19606 assessed as reduction in microbial growth incubated for 16 to 18 hrs by CLSI based broth dilution method; type: functional; settings: time 16-18 hrs
Acinetobacter baumannii [29] = assay: Antibacterial activity against Acinetobacter baumannii 20-1 incubated for 16 to 18 hrs by CLSI based broth dilution method; type: functional; settings: time 16-18 hrs
Acinetobacter baumannii [30] = assay: Antibacterial activity against Acinetobacter baumannii 20-2 incubated for 16 to 18 hrs by CLSI based broth dilution method; type: functional; settings: time 16-18 hrs
Pseudomonas aeruginosa = assay: Antibacterial activity against Pseudomonas aeruginosa ATCC 27853 incubated for 16 to 18 hrs by CLSI based broth dilution method; type: functional; settings: time 16-18 hrs

SMILES | MIC (Staphylococcus aureus [6]) | MIC (Staphylococcus aureus [7]) | MIC [8] | MIC (Acinetobacter baumannii [9]) | MIC (Enterococcus faecalis [10]) | MIC (Escherichia coli [11]) | inhibition [13] | IC50 (MCF7) | IC50 (HGC-27) | IC50 (HCT-116) | IC50 (HepG2) | MIC (Staphylococcus aureus [15]) | MIC (Staphylococcus aureus [16]) | MIC (Staphylococcus aureus [17]) | MIC (Staphylococcus aureus [18]) | MIC (Staphylococcus aureus [19]) | MIC (Staphylococcus aureus [20]) | MIC (Escherichia coli [25]) | MIC (Acinetobacter baumannii [28]) | MIC (Acinetobacter baumannii [30]) | other results
CC(=O)O[C@H]1C(=O)[C@@]2(C)[C@H]([C@H](OC(=O)c3ccccc3)[C@]3(O)C[C@H](OC(=O)[C@H](O)[C@@H](NC(=O)c4ccccc4)c4ccccc4)C(C)=C1C3(C)C)[C@]1(OC(C)=O)CO[C@@H]1C[C@@H]2O [PACLITAXEL] |  |  |  |  |  |  |  |  |  |  |  |  |  |  |  |  |  |  |  |  | Activity [1]: Non-Toxic; Activity [2]: 18.6 g; Activity [3]: 20.1 g; Activity (EMT6 [4]): 0.71 g; Activity (EMT6 [5]): 53.2%
Nc1nc(N)c2c(ccc3c2ccn3Cc2ccc(-c3ccccc3)cc2)n1 | 1 µg/mL (≈ 2.74 µM) | 0.5 µg/mL (≈ 1.37 µM) | ≤ 0.004 µg/mL | > 32 µg/mL | 0.25 µg/mL (≈ 0.684 µM) | > 128 µg/mL | 54.8% | 580 nM | 85 nM | 32 nM | 530 nM |  |  |  |  |  |  |  |  |  | fold change (FC) (Staphylococcus aureus [12]): 8; LD50 at 192 h [14]: 154 mg/kg
Nc1nc(N)c2c(ccc3c2ccn3Cc2cccc3ccccc23)n1 | 0.125 µg/mL (≈ 0.368 µM) | 0.06 µg/mL (≈ 0.177 µM) | 1 µg/mL (≈ 2.95 µM) | 1 µg/mL (≈ 2.95 µM) | 0.125 µg/mL (≈ 0.368 µM) | 1 µg/mL (≈ 2.95 µM) | 83.9% | 460 nM | 1010 nM | > 10000 nM | 520 nM | ≤ 0.03 µg/mL | ≤ 0.03 µg/mL | ≤ 0.03 µg/mL | ≤ 0.03 µg/mL | ≤ 0.03 µg/mL | ≤ 0.03 µg/mL | > 64 µg/mL | 1 µg/mL | 2 µg/mL (≈ 5.89 µM) | MIC (Staphylococcus aureus [21]): 0.06 µg/mL (≈ 0.177 µM); MIC (Enterococcus faecalis [22]): ≤ 0.03 µg/mL; MIC (Enterococcus faecalis [23]): ≤ 0.03 µg/mL; MIC (Enterococcus): ≤ 0.03 µg/mL; MIC (Escherichia coli [24]): > 64 µg/mL; MIC (Klebsiella pneumoniae [26]): 4 µg/mL; MIC (Klebsiella pneumoniae [27]): 4 µg/mL; MIC (Acinetobacter baumannii [29]): 32 µg/mL (≈ 94.3 µM); MIC (Pseudomonas aeruginosa): > 64 µg/mL
Nc1nc(N)c2c(ccc3c2ccn3Cc2ccc3ccccc3n2)n1 | 0.06 µg/mL (≈ 0.176 µM) | 0.03 µg/mL (≈ 0.0881 µM) | 0.25 µg/mL (≈ 0.734 µM) | 4 µg/mL (≈ 11.8 µM) | 0.06 µg/mL (≈ 0.176 µM) | 0.5 µg/mL (≈ 1.47 µM) | 74.1% | 830 nM | 210 nM | > 10000 nM | 270 nM | ≤ 0.03 µg/mL |  | 0.06 µg/mL (≈ 0.176 µM) | 0.125 µg/mL (≈ 0.367 µM) |  |  | > 64 µg/mL | 4 µg/mL | 2 µg/mL (≈ 5.88 µM) | MIC (Klebsiella pneumoniae [26]): 4 µg/mL; MIC (Klebsiella pneumoniae [27]): 2 µg/mL; MIC (Acinetobacter baumannii [29]): > 64 µg/mL; MIC (Pseudomonas aeruginosa): > 64 µg/mL
C[C@H]1COc2c(N3CCN(C)CC3)c(F)cc3c(=O)c(C(=O)O)cn1c23 [LEVOFLOXACIN ANHYDROUS] |  | 0.25 µg/mL (≈ 0.692 µM) |  |  |  | ≤ 0.03 µg/mL |  |  |  |  |  | 16 µg/mL (≈ 44.3 µM) | 64 µg/mL (≈ 177 µM) | 0.25 µg/mL (≈ 0.692 µM) | 0.25 µg/mL (≈ 0.692 µM) | 0.25 µg/mL (≈ 0.692 µM) | 32 µg/mL (≈ 88.6 µM) | 8 µg/mL (≈ 22.1 µM) | 0.25 µg/mL | ≤ 0.03 µg/mL | MIC (Staphylococcus aureus [21]): 64 µg/mL (≈ 177 µM); MIC (Enterococcus faecalis [22]): 1 µg/mL (≈ 2.77 µM); MIC (Enterococcus faecalis [23]): 2 µg/mL (≈ 5.53 µM); MIC (Enterococcus): 1 µg/mL (≈ 2.77 µM); MIC (Escherichia coli [24]): 32 µg/mL (≈ 88.6 µM)
